Measured values published in patent publication US10227331B2 (priority 2015, dated 2019).

Experiments:
[1] = molecular target: IMP-1 (Serratia marcescens, UniProt P52699); assay: biochemical; type: biochemical; settings: CCF2-FA substrate, 2 hours at 25° C; read-out: IMP-1 IC50
Outline: (§1)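 IC50 values derive from 4-parameter fits of percent inhibition against inhibitor concentration on semi-log axes. Activity was monitored by fluorescence with the CCF2-FA substrate after a 2-hour, 25° C incubation of compound, enzyme and substrate.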

[2] = molecular target: NDM-1 (Klebsiella pneumoniae, UniProt C7C422); assay: biochemical; type: biochemical; settings: CCF2-FA substrate, 2 hours at 25° C; read-out: NDM-1 IC50
Sequence of NDM-1 (C7C422 whole entry, looked up, species assumed): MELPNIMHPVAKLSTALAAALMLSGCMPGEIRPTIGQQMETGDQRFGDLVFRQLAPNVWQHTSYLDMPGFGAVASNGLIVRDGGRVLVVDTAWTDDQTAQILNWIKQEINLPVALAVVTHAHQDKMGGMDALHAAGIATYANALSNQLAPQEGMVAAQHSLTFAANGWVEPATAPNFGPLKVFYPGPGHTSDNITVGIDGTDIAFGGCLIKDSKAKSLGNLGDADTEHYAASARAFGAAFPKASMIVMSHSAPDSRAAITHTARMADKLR
Outline: as §1

[3] = molecular target: VIM-1 (Pseudomonas aeruginosa (strain ATCC 15692 / DSM 22644 / CIP 104116 / JCM 14847 / LMG 12228 / 1C / PRS 101 / PAO1), UniProt A0A0F7KYQ8); assay: biochemical; settings: CCF2-FA substrate, 2 hours at 25° C
Outline: as §1

[4] = system: Escherichia coli expressing NDM-1 (CLB30005, CLB30016); type: cell-based; settings: with imipenem 1 μg/ml, 95% inhibition of bacterial growth
Outline: (§2)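 Restoration of imipenem susceptibility (1 μg/ml imipenem) was judged by absorbance after 22–24 h at 35° C. Test compound was added to bacteria suspended 1:100 in 1.1× CAMHB from overnight blood-agar cultures.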

[5] = system: Klebsiella pneumoniae expressing VIM-1 (IHMA599644); type: cell-based; settings: with imipenem 1 μg/ml, 95% inhibition of bacterial growth
Outline: as §2

[6] = system: Serratia marcescens expressing IMP-1 (CL5741); type: cell-based; settings: with imipenem 1 μg/ml, 95% inhibition of bacterial growth
Outline: as §2

[7] = system: P. aeruginosa expressing IMP-1, efflux+ (MB9798); type: cell-based, Pseudomonas aeruginosa; settings: for P. aeruginosa expressing IMP-1, efflux+ (MB9798) MITC95: imipenem at 2 μg/mL, in the presence of a class A, C, D serine β-lactamase inhibitor closely related to relebactam; for Efflux ratio: ratio MITC95 PA_9798/MITC95 PA_9799
Source text: (§3) The strain background is Pseudomonas aeruginosa PAO1.

[8] = system: P. aeruginosa expressing IMP-1, efflux− (MB9799); assay: Efflux: concentration of MBL inhibitor which restores susceptibility to imipenem; type: cell-based, Pseudomonas aeruginosa; settings: imipenem at 2 μg/mL, in the presence of a class A, C, D serine β-lactamase inhibitor closely related to relebactam
Source text: as §3

Sequence of IMP-1 (P52699 whole entry, looked up, species assumed): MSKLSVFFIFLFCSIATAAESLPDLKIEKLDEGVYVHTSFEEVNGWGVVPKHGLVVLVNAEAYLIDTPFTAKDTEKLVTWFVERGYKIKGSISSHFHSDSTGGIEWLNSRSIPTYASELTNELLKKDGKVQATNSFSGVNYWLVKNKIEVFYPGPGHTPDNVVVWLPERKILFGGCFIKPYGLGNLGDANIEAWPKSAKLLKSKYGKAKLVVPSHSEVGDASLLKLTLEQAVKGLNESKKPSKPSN

| Structure (SMILES) | IC50 [1] [nM] | IC50 [2] [nM] | IC50 [3] [nM] | Escherichia coli expressing NDM-1 (CLB30016) MITC95 [4] [µM] | Klebsiella pneumoniae expressing VIM-1 (IHMA599644) MITC95 [5] [µM] | Serratia marcescens expressing IMP-1 (CL5741) MITC95 [6] [µM] | P. aeruginosa expressing IMP-1, efflux+ (MB9798) MITC95 [7] [µM] | Efflux ratio [7] | P. aeruginosa expressing IMP-1, efflux− (MB9799) MITC95 [8] [µM] | Escherichia coli MITC95 ([4]; NDM-1 (CLB30016)) [µM] | Klebsiella pneumoniae MITC95 ([5]; VIM-1 (IHMA599644)) [µM] | Serratia marcescens MITC95 ([6]; IMP-1 (CL5741)) [µM] |
| --- | --- | --- | --- | --- | --- | --- | --- | --- | --- | --- | --- | --- |
| NCCS(=O)(=O)c1ccc(-c2ccc(CO)nc2)c(-c2nnn[nH]2)c1S(N)(=O)=O.O=C(O)C(F)(F)F [Example 145, 2-((4-(6-(hydroxymethyl)pyridin-3-yl)-2-sulfamoyl-3-(1H-tetrazol-5-yl)phenyl)sulfonyl)ethanaminium 2,2,2-trifluoroacetate] | 4.84 | 4.31 | 1.25 | 1.563 | 6.25 | 3.125 | 12.5 | 8.00 | 1.563 | – | – | – |
| COC(=O)c1cccc(-c2ccc(S(=O)(=O)CCN)c(S(N)(=O)=O)c2-c2nn[nH]n2)c1N [Example 197, methyl 2-amino-4′-((2-aminoethyl)sulfonyl)-3′-sulfamoyl-2′-(2H-tetrazol-5-yl)-[1,1′-biphenyl]-3-carboxylate] | 0.554 | 0.556 | 0.262 | 0.7813 | 3.125 | 1.563 | 12.5 | 8.00 | 1.563 | – | – | – |
| CS(=O)(=O)c1ccc(-c2cnc3ccccn23)c(-c2nn[nH]n2)c1S(N)(=O)=O [Example 238, 3-(Imidazo[1,2-a]pyridin-3-yl)-6-(methylsulfonyl)-2-(2H-tetrazol-5-yl) benzenesulfonamide] | 0.333 | 0.862 | 0.201 | 3.125 | 6.25 | 3.125 | 50 | 31.99 | 1.563 | – | – | – |
| NS(=O)(=O)c1c(S(=O)(=O)C2CNC2)ccc(-c2cccc3[nH]c(C(=O)NCC(=O)O)nc23)c1-c1nn[nH]n1 [Example 257, (4-(4-(azetidin-3-yl sulfonyl)-3-sulfamoyl-2-(2H-tetrazol-5-yl)phenyl)-1H-benzo[d]imidazole-2-carbonyl)glycine] | 1.2 | 0.123 | 0.428 | – | – | – | 25 | 2.00 | 12.5 | 25 | 50 | 25 |
| N=C(N)c1nc2c(-c3ccc(S(=O)(=O)CCN)c(S(N)(=O)=O)c3-c3nn[nH]n3)cccc2s1 [Example 86, 4-(4-(2-aminoethylsulfonyl)-3-sulfamoyl-2-(2H-tetrazol-5-yl)phenyl)benzo[d]thiazole-2-carboximidamide] | 0.869 | 0.295 | 0.141 | 0.7813 | 0.7813 | 0.7813 | 1.563 | 4.00 | 0.3906 | – | – | – |
| NS(=O)(=O)c1c(S(=O)(=O)[C@@H]2CCNC2)ccc(-c2cccc3cn[nH]c23)c1-c1nn[nH]n1 [Example 185, 3-(1H-indazol-7-yl)-6-((R)-pyrrolidin-3-ylsulfonyl)-2-(2H-tetrazol-5-yl)benzenesulfonamide] | 0.466 | 0.657 | 0.55 | 0.7813 | 3.125 | 1.563 | 1.563 | 2.00 | 0.7813 | – | – | – |
